What was measured:
[1] = system: M12 melanoma cells; test: M12 melanoma cell growth inhibition in nude mice; type: in vivo, Balb/c nude mice; settings: 10 mg/kg daily oral, day 25 to day 55; FIG. 2; * p<0.05
Procedure: This study was performed in groups of 10 Balb/c nude mice.
On the first day of the experiment (day 0), 2×10^6 M12 melanoma cells were transplanted into mice in the test group. When the tumor volume reached 100 mm^3, the test Compound 1 was administered orally in doses of 10 mg/kg daily to the mice. This treatment was carried out 30 times from day 25 to day 55. The tumor diameter was measured using calipers everyday after transplantation of tumor cells. The tumor volume was calculated according to the following formula.
Tumor volume (mm^3)=(long diameter)×(short diameter)^2 ×1/2

[2] = system: Human stomach cancer cells (KATO-III); test: Cancer cell growth inhibition, KATO-III; type: cell-based; settings: control 100
Procedure: The cell concentration was adjusted to 1×10^5 cells/ml using the same medium as used above in (1).
Test compound 1 was dissolved in acetic acid, followed by dilution with the same medium as used above in (1) and neutralization with 2N NaOH to give final concentrations of 100 μg/ml, 10 μg/ml and 1.0 μg/ml.
a) The test compound solutions prepared as described above under (3) were added to the HL-60 cell suspension prepared as described above under (1) to final concentrations of 10 μg/ml and 1.0 μg/ml. Using 12-well culture plates (Costar), cultivation was conducted in a 5% carbon dioxide gas incubator maintained at 37° C. for 3 to 4 days. The test compound-free medium was used as a control. Thereafter, the cell suspension in each well was sampled and mixed with 0.2% trypan blue-containing phosphate buffer, and unstained viable cells were counted under a microscope. Based on the counting result, the viable cell concentration was readjusted to 1×10^5 cells/ml, and cultivation was continued under the same conditions.
KATO-III cells prepared as described above under (2) were cultivated in the same manner.

[3] = system: human peripheral blood acute lymphocytic leukemia cells (Molt-4); test: ATL-infected cell growth inhibition test: ATLV-noninfected cells; type: cell-based; settings: for Number of ATLV-noninfected cells: 4 days, control 13.9
Procedure: Human peripheral blood acute lymphocytic leukemia cells (Molt-4) [J. Minowada, et al., J. Natl. Cancer Inst., 49, 891-895 (1972): ATCC CRL1582] were used to prepare a suspension of 1×10^5 cells/ml in RPMI-1640 medium (Gibco) supplemented 10% fetal calf serum (FCS, Gibco) for use as ATL virus-noninfected cells.
Compound 1 was dissolved in hydrochloric acid, diluted with the same medium as above, neutralized with 2N NaOH and adjusted to concentrations of 1 μg/ml, 10 μg/ml and 30 μg/ml.
The cells prepared in (a) and (b) above were respectively placed in wells of a 24-well culture plate (Nunc), followed by addition of the test compound prepared in (c) (final concentration: 1 μg/ml, 10 μg/ml or 30 μg/ml), and cultured at 37° C. in a 5% carbon dioxide incubator for 4 days. As a control, the medium without addition of the test compound was used. After completion of incubation, the cell suspension in each well was taken for determination of viable cells.

COc1ccc(C(=O)N2CCN(c3ccc4c(c3)CCC(=O)N4)CC2)cc1OC [Compound 1, 6-[4-(3,4-Dimethoxybenzoyl)-1-piperazinyl]-3,4-dihydrocarbostyril]
Growth of M12 melanoma cells (tumor volume) [1]: significantly inhibits growth of M12 melanoma cells
activity at 1 µg/mL ([2]; 576 h, on day 24, 1.0 μg/ml): 88 ± 2.3%
activity at 10 µg/mL ([2]; 576 h, on day 24, 10 μg/ml): 61 ± 1.5%
activity at 1 µg/mL ([2]; 792 h, on day 33, 1.0 μg/ml): 0%
activity at 10 µg/mL ([2]; 792 h, on day 33, 10 μg/ml): 0%
Number of ATLV-noninfected cells ([3]; 1 μg/ml): 13.9 ×10^5
Number of ATLV-noninfected cells ([3]; 10 μg/ml): 12.2 ×10^5
Number of ATLV-noninfected cells ([3]; 30 μg/ml): 12.8 ×10^5
Effect on ATLV-noninfected cells (in words) ([3]; 1-30 μg/ml): does not affect ATLV-noninfected cells

— patent US5672603A, “Apoptosis regulating composition” (Otsuka Pharmaceutical Co., Ltd., priority 1991, dated 1997)
